Key:
[1] = system: methamphetamine-induced locomotor activity; test: Anti-methamphetamine effect (inhibitory effect on methamphetamine-induced locomotor activity); format: in vivo, male STD-ddY strain mice
Procedure: Pharmacological experiments have been done on the compound of the present invention, some known and novel analogous compounds and an antidepressant on the market, as mentioned below. In the experiments, ED50 was calculated by Litchfield-Wilcoxon method.
Male STD-ddY strain mice, weighing 20-25 g, were used in groups of 10 mice each. Groups of mice were injected intraperitoneally with 4 mg/kg of methamphetamine, and 30 minutes later each test compound was injected intraperitoneally in 3 different doses. One hour after the injection of methamphetamine, locomotor activity of each mouse was measured for 10 minutes with an Animex locomotor activity meter.

[2] = system: brain homovanillic acid (HVA); test: Effect on brain monoamine metabolites: HVA; format: in vivo, male Wistar strain rats; conditions: 100 mg/kg p.o.; for Brain HVA, % of control: *P<0.01
Procedure: Each test compound was given orally to the rats in a dose of 100 mg/kg and, 1, 3 and 6 hours later the rats were sacrificed. […] The concentrations of the monoamine metabolites were calculated in terms of ng/g wet brain tissue and expressed as % of the concentrations of controls receiving saline.

[3] = system: ptosis induced by tetrabenazine; test: Anti-tetrabenazine activity: antagonistic effect on ptosis induced by tetrabenazine; format: in vivo, male STD-ddY strain mice; conditions: Mus musculus, po; tetrabenazine 70 mg/kg i.p.; Table 2
Procedure: Pharmacological experiments have been done on the compound of the present invention, some known and novel analogous compounds and an antidepressant on the market, as mentioned below. In the experiments, ED50 was calculated by Litchfield-Wilcoxon method. Male STD-ddY strain mice, weighing 20-25 g, were used in groups of 10 mice each. […] Two hours after the tetrabenazine injection, the degree of eyelid closure (ptosis) was assessed on the basis of macroscopic scoring (0: no closure of the eyelid, 1: 1/4 closure, 2: 2/4 closure, 3: 3/4 closure and 4: complete closure), essentially according to the method of P. A. J. Janssen [Arzneim. Forsch. 15, 104 (1965)]. ED50 was calcuated for each compound.

CCN1CCN(c2cc(-c3ccccc3)c3ccccc3n2)CC1.Cl.Cl [A, 2-(4-Ethyl-1-piperazinyl)-4-phenylquinoline dihydrochloride]
ED50 ([1]; Mus musculus, ip, methamphetamine 4 mg/kg i.p., read-out: Anti-methamphetamine ED50): 8 mg/kg | Activity relative to chlorpromazine, methamphetamine-induced locomotor activity ([1]; fraction of chlorpromazine activity, i.p.): about 1/8 | Brain HVA concentration / dopamine turnover (in words) [2]: marked increase in brain HVA concentration | Brain HVA, % of control ([2]; 1 hour): 193 % of control | Brain HVA, % of control ([2]; 3 hours): 186 % of control | Brain HVA, % of control ([2]; 6 hours): 186 % of control | ED50 [3]: 1.8 mg/kg

Source: patent US4237135A, “2-(4-Ethyl-1-piperazinyl)-4-phenylquinoline, process for preparation thereof, and composition thereof” (Dainippon Pharmaceutical Co., Ltd., priority 1978, dated 1980)
